{
  "source": "patent US9023853B2",
  "about": "“Janus kinase 2 (JAK2) inhibitor for the treatment of lupus” (Cephalon, Inc., priority 2010, dated 2015)",
  "assay_type_in_all_cases": "in vivo, mouse",
  "key": {"[1]": {"tested_on": "IL-12", "assay": "Serum IL-12 (Luminex) in NZM mice", "method": "(§1) For the processing of serum samples for cytokine analysis, frozen plasma at −80° C. was thawed on ice, vortexed, and centrifuged for 10 minutes to remove debris and aggregates. A total of 25-50 μL of serum was used for Luminex® assays following the manufacturer's instructions. Ten different mouse cytokines were measured using the mouse cytokine 10-plex bead kit (Invitrogen, Carlsbad, Calif., no. LMC0001). Briefly, filter plates (Millipore, Billerica, Mass., no. MAIPSWU10), were pre-wet with 200 μL of wash solution (kit component) and 25 μL of beads were added per well. […]\n(§2) Age mated, female, NZM or NZW/LacJ, mice were matured for the study of lupus nephritis for a total of 7 months or 210 days at which time urine was collected for proteinuria detection. Mice with 0.5-1.0 mg/ml of urine protein as determined by an optical density-based total protein precipitation assay and cross-checked for 30-300 mg/dl of protein as determined by a stick assay were considered proteinuria positive and selected for study entry. […] End-stage lupus nephritis was evaluated by histopathology and scored by a board certified pathologist for the assessment of total renal damage in diseased animals using the scoring method described by Smith et al (Smith, Dong et al. 2007). […]"}, "[2]": {"tested_on": "KC/IL-8", "assay": "Serum KC/IL-8 in NZM mice", "method": "as §1, §2"}, "[3]": {"tested_on": "MRL/lpr mice", "assay": "Lymphomegaly, splenomegaly and spleen leukocyte counts in MRL/lpr lupus model", "details": "for total spleen leukocyte counts compared to vehicle: p<0.05; for mice without lymphomegaly: vehicle 0%", "method": "Six week old lupus-prone, female, MRL/lpr (Jackson Labs, #000485) and non-lupus prone control MRL/MpJ (Jackson Labs, #000486) mice were obtained from Jackson Laboratories (Bar Harbor, Me.) at 6-weeks of age. Spontaneous SLE-prone NZBWF1/J (NZM) (catalog no. 100008) female mice and non-lupus prone (within time from of experiment) NZW/LacJ (catalog no. 001058) female mice were obtained from Jackson Laboratories (Bar Harbor, Me.) at 15-weeks of age. All mice were maintained on a […] light/dark cycle, with food and water available ad libitum. All experimental animal procedures were approved by and in accordance to the regulations of the Institutional Animal Care and Use Committee (IACUC) of Cephalon, Inc; approved IACUC protocol #03-040 and #03-03-041. […] Due to this impaired tolerance mechanism, a percentage of all T and B cells that enter the periphery have a high likelihood of responding to self protein/tissues and thus initiate autoimmunity early in life. The MRL/lpr model mice develop several chronic inflammatory disease-like symptoms that are characteristic of early and late lupus including the generation of anti-nuclear antibodies, arthritis, dermatological manifestations, immunocomplex-mediated glomerulonephritis leading to proteinuria and eventual death. Lesser characterized phenomenon are CNS and cardiac manifestations, both of which are more common in humans. […] Mortality is higher in the females and occurs around 25 weeks of age, renal disease includes glomerulonephritis, glomerular infiltrates, sclerosis and vasculitis. Both splenomegaly and lymphomegaly associated with dermatitis can also be observed. […] Mice were tracked on an individual basis."}},
  "data": [
    {"smiles": "CN1CCN(c2cccc(Nc3nc4c(-c5ccc(S(C)(=O)=O)cc5)cccn4n3)c2)CC1", "note": "[COMPOUND A, [8-(4-methanesulfonyl-phenyl)-[1,2,4]triazolo[1,5-a]pyridin-2-yl]-[3-(4-methyl-piperazin-1-yl)-phenyl]-amine]", "values": [
      {"measurement": "serum IL-12 decrease compared to vehicle", "setting": "[1]; 55 mg/kg", "result": 99.4, "unit": "%"},
      {"measurement": "serum IL-12 decrease compared to vehicle", "setting": "[1]; 100 mg/kg", "result": 99.9, "unit": "%"},
      {"measurement": "serum KC/IL-8 decrease compared to vehicle", "setting": "[2]; 55 mg/kg", "result": 78.0, "unit": "%"},
      {"measurement": "serum KC/IL-8 decrease compared to vehicle", "setting": "[2]; 100 mg/kg", "result": 72.9, "unit": "%"},
      {"measurement": "spleen mass decrease vs. vehicle", "setting": "[3]; 55 mg/kg p.o. b.i.d.", "result": 49.4, "unit": "%"},
      {"measurement": "total spleen leukocyte counts compared to vehicle", "setting": "[3]; 55 mg/kg p.o. b.i.d.", "result": "reduced total leukocyte counts"},
      {"measurement": "mice without lymphomegaly", "setting": "[3]; 55 mg/kg p.o. b.i.d.", "result": 100, "unit": "%"},
      {"measurement": "spleen mass decrease vs. vehicle", "setting": "[3]; 100 mg/kg p.o. b.i.d.", "result": 74.1, "unit": "%"},
      {"measurement": "spleen mass relative to non-lupus control animal (MRL/Mp; 98 mg)", "setting": "[3]; 100 mg/kg p.o. b.i.d.", "result": "decreased spleen mass to the level of a non-lupus control animal"},
      {"measurement": "total spleen leukocyte counts compared to vehicle", "setting": "[3]; 100 mg/kg p.o. b.i.d.", "result": "reduced total leukocyte counts"},
      {"measurement": "mice without lymphomegaly", "setting": "[3]; 100 mg/kg p.o. b.i.d.", "result": 100, "unit": "%"}
    ]}
  ]
}
